Test results: patent US20070161665A1, “Cancer treatment method” (priority 2003, published 2007)

How the values were obtained:
HN5 cells = assay: Roche Cell Death ELISAPlus apoptosis assay in HN5 cells (median effect and sensitization ratio analysis); format: cell-based; conditions: HN5; for Sensitization Ratio in HN5 with 5 μM GW589522A: 5 μM GW589522A 24 h
Procedure: HN5 cells are LICR-LON-HN5 head and neck carcinoma cells, which were a gift from the Institute of Cancer Research, Surrey, U.K.
(§1) Cell lines were grown in RPMI-1640 supplemented with 25 mM HEPES, 10 mM glutamine and 10% fetal bovine serum and maintained at 37° C. and 5% CO2 in a humid incubator. Assays were performed in 96 well microtiter plates with optimum seeding densities for each cell line.
(§2) Apoptosis was measured using the Roche Cell Death ELISA^Plus kit (catalog 1 774 425) which detects fragmented nucleosomal DNA that is generated during apoptosis.
Synergistic interaction between compounds was analyzed by the median effect method described by Chou and Talalay (Adv. Enzyme Regul. 22: 27-55, 1984). Briefly, if the two compounds fit the mutually exclusive model of Chou, one calculates the combination index (CI) using the formula CI=((D)1/(Dx)1)+((D)2/(Dx)2) (1) where (D)1 is the concentration of drug 1 in the combination that gives “x” percent apoptosis, (D)2 is the same for drug 2, and (Dx)1 and (Dx)2 are the concentrations of drug 1 or 2 that give “x” percent apoptosis when used alone. (D)1 and (D)2 are known from the composition of the combination and (Dx)1 and (Dx)2 can be calculated from the equation Dx=Dm*[fa/(1−fa)]^1/m (2) where Dm is the concentration of drug giving 50% effect, fa is the fraction affected, and m is the slope from the median effect plot of log (fa/fu) where fu is the fraction unaffected versus log (D). A CI less than 1 indicates synergy, equal to 1 indicates additivity and greater than 1 antagonism.
Sensitization is measured as the ratio between observed and expected apoptosis or caspase activation from a combination of AKT kinase inhibitor and EGFR/erb inhibitor. The expected level of activity (Ae) is calculated by Ae=1−((1−A1)*(1−A2)) (3) where A1 and A2 are the activities of drugs 1 and 2 alone at the concentration used in the combination (Harvey, R. J., J. Theor. Biol. 74: 411-437, 1978).

T47D cells = assay: Roche Cell Death ELISAPlus apoptosis assay in T47D cells (sensitization ratio); format: cell-based, human; conditions: compound at 25 μM, combined with GW589522
Procedure: T47D cells are human breast ductal carcinoma cells originally obtained from the American Type Culture Collection.
as §1, §2
The expected level of activity (Ae) is calculated by Ae=1−((1−A1)*(1−A2)) (3) where A1 and A2 are the activities of drugs 1 and 2 alone at the concentration used in the combination (Harvey, R. J., J. Theor. Biol. 74: 411-437, 1978).
Apoptosis was measured using the Roche Cell Death ELISA^Plus kit, and the relative percentage of apoptosis was determined for each combination.

AKT1 = AKT1 (Homo sapiens, UniProt P31749); assay: Inhibition of AKT isoforms, enzyme IC50; format: biochemical
AKT2 = AKT2 (Homo sapiens, UniProt P31751); assay: Inhibition of AKT isoforms, enzyme IC50; format: biochemical
AKT3 = AKT3 (Homo sapiens, UniProt Q9Y243); assay: Inhibition of AKT isoforms, enzyme IC50; format: biochemical
Sequence of AKT3 (Q9Y243 whole entry, species assumed, canonical isoform): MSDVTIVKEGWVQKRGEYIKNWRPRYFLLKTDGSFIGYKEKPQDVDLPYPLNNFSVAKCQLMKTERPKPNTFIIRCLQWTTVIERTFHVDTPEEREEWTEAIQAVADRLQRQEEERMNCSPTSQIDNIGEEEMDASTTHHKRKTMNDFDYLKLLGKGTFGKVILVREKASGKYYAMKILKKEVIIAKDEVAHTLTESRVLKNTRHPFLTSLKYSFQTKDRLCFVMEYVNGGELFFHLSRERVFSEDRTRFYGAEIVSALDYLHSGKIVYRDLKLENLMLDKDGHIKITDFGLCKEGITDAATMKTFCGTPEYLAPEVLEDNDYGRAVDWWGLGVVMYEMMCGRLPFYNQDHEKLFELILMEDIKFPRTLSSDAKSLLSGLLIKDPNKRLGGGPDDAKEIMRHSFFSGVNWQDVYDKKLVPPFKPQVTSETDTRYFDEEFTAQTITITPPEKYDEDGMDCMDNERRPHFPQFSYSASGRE

Sequence of AKT2 (P31751 whole entry, species assumed, canonical isoform): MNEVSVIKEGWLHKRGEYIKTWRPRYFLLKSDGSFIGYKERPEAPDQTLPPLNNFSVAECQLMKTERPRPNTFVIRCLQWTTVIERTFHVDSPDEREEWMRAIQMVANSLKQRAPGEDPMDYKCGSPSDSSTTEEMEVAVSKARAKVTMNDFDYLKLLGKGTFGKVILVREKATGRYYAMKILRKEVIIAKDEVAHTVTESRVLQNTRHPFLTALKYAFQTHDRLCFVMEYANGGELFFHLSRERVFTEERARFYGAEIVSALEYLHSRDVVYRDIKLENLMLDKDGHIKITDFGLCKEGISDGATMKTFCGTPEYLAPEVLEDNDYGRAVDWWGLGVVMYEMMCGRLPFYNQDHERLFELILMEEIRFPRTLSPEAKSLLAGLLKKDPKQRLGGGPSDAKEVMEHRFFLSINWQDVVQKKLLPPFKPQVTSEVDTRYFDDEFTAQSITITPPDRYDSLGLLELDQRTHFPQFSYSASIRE
Sequence of AKT1 (P31749 whole entry, species assumed, canonical isoform): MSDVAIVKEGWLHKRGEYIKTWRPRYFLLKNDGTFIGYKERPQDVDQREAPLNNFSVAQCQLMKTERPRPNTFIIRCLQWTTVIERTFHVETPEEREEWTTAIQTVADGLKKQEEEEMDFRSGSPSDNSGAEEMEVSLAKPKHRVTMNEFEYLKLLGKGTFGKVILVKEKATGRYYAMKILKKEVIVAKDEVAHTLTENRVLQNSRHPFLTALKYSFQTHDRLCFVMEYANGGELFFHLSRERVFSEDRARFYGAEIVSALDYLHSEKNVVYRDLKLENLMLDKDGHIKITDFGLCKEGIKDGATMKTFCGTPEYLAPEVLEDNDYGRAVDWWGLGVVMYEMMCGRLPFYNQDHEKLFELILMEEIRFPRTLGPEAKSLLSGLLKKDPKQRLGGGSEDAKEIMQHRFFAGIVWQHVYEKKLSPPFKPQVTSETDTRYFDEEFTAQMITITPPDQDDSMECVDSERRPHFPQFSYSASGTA

Row | IC50 (AKT1) | IC50 (AKT2) | IC50 (AKT3) | Compound | further results
1 | 8320 nM | 7940 nM | 450 nM | Nc1nonc1-c1nc2c(-c3cccc(Cl)c3)ncc(C(=O)NCCNCc3ccccc3)c2n1CC1CC1.O=C(O)C(F)(F)F [Ex 8, 2-(4-amino-1,2,5-oxadiazol-3-yl)-4-(3-chlorophenyl)-1-(cyclopropylmethyl)-N-{2-[(phenylmethyl)amino]ethyl}-1H-imidazo[4,5-c]pyridine-7-carboxamide, trifluoroacetate salt] | Sensitization Ratio in HN5 with 5 μM GW589522A (HN5 cells; then compound 25 μM 4 h): 27 @ 25; SR (sensitization ratio) (T47D cells): 7.1
2 | 10 nM | 30 nM | 10 nM | CCn1c(-c2nonc2N)nc2c(-c3ccccc3)ncc(OCC3CCCNC3)c21.O=C(O)C(F)(F)F (centres unmarked) [Ex 10, 4-{1-ethyl-4-phenyl-7-[(3-piperidinylmethyl)oxy]-1H-imidazo[4,5-c]pyridin-2-yl}-1,2,5-oxadiazol-3-amine trifluoroacetate] | Sensitization Ratio in HN5 with 5 μM GW589522A (HN5 cells; then compound 10 μM 4 h): 3.7 @ 10
3 | 70 nM | 270 nM | 510 nM | CCn1c(-c2nonc2N)nc2cncc(OCC3CCNCC3)c21 [Ex 14, 4-[1-Ethyl-7-(piperidin-4-ylmethoxy)-1H-imidazo[4,5-c]pyridin-2-yl]-furazan-3-ylamine] | Sensitization Ratio in HN5 with 5 μM GW589522A (HN5 cells; then compound 4 h, concentration not given): 4.5 @

Further lines, the compound ahead of its results:

Row | Compound | IC50 (AKT1) | IC50 (AKT2) | IC50 (AKT3) | further results
4 | CCn1c(-c2nonc2N)nc2cncc(OC3CCNCC3)c21 [Ex 9, 4-[1-Ethyl-7-(piperidin-4-yloxy)-1H-imidazo[4,5-c]pyridin-2-yl]-furazan-3-ylamine] | 130 nM | 390 nM | 410 nM | Sensitization Ratio in HN5 with 5 μM GW589522A (HN5 cells; then compound 4 μM 4 h): 2.6 @ 4; Net Apoptosis (HN5 cells; GW572016 0 μM 24 h, then Ex 9 2 μM 4 h): 2.7%; Net Apoptosis (HN5 cells; GW572016 0 μM 24 h, then Ex 9 4 μM 4 h): 1.8%; Net Apoptosis (HN5 cells; GW572016 0 μM 24 h, then Ex 9 8 μM 4 h): 3.9%; Net Apoptosis (HN5 cells; GW572016 0 μM 24 h, then Ex 9 16 μM 4 h): 3.7%; Net Apoptosis (HN5 cells; GW572016 0 μM 24 h, then Ex 9 20 μM 4 h): 4.7%; Net Apoptosis (HN5 cells; GW589522 0 μM 24 h, then Ex 9 0.5 μM 4 h): 6.3%; Net Apoptosis (HN5 cells; GW589522 0 μM 24 h, then Ex 9 2 μM 4 h): 8.7%; Net Apoptosis (HN5 cells; GW589522 0 μM 24 h, then Ex 9 8 μM 4 h): 17.9%
5 | CCn1c(-c2nonc2N)nc2c(-c3cccc(Cl)c3)ncc(OCC3CCNCC3)c21.O=C(O)C(F)(F)F [Ex 11, 4-{4-(3-chlorophenyl)-1-ethyl-7-[(4-piperidinylmethyl)oxy]-1H-imidazo-[4,5-c]pyridin-2-yl}-1,2,5-oxadiazol-3-amine trifluoroacetate] | 30 nM | 20 nM | 10 nM | Sensitization Ratio in HN5 with 5 μM GW589522A (HN5 cells; then compound 2.5 μM 4 h): 20 @ 2.5; Sensitization Ratio in HN5 with 5 μM GW589522A (HN5 cells; then compound 5 μM 4 h): 25 @ 5
6 | CCn1c(-c2nonc2N)nc2c(-c3cccc(Cl)c3)ncc(OCCCCN)c21.O=C(O)C(F)(F)F [Ex 12, 4-[7-[(4-aminobutyl)oxy]-4-(3-chlorophenyl)-1-ethyl-1H-imidazo-[4,5-c]pyridin-2-yl]-1,2,5-oxadiazol-3-amine trifluoroacetate] | 40 nM | 40 nM | 10 nM | Sensitization Ratio in HN5 with 5 μM GW589522A (HN5 cells; then compound 25 μM 4 h): 3.6 @ 25
7 | CCn1c(-c2nonc2N)nc2c(-c3ccccc3)ncc(OCCCN)c21.O=C(O)C(F)(F)F [Ex 13, 4-{7-[(3-aminopropyl)oxy]-1-ethyl-4-phenyl-1H-imidazo[4,5-c]pyridin-2-yl}-1,2,5-oxadiazol-3-amine trifluoroacetate] | 40 nM | 20 nM | 10 nM | Sensitization Ratio in HN5 with 5 μM GW589522A (HN5 cells; then compound 5 μM 4 h): 12 @ 5
